The results in this text go back to ChEMBL document CHEMBL1201862, “PubChem BioAssay data set” (2004).

What all share (assay): NCI tumour cell line growth inhibition, 48 h
Experiment [1] relates to IGROV-1.
Experiment [2] deals with HCT-116.
Experiment [3] relates to MDA-MB-231.
Experiment [4] concerns HCC 2998.
Experiment [5] deals with SK-MEL-2.
Experiment [6] concerns NCI-H23.
Experiment [7] concerns A498.
In experiment [8] the test system is T47D.
In experiment [9] the test system is SK-OV-3.
Experiment [10] concerns K562.
Experiment [11] relates to M19-MEL.
The test system of experiment [12] is PC-3.
The subject of experiment [13] is HL-60.
In experiment [14] the test system is ACHN.
The test system of experiment [15] is SK-MEL-28.
The subject of experiment [16] is UACC-257.
Experiment [17] relates to Hs-578T.
Experiment [18] has as its system OVCAR-4.
Experiment [19] deals with BT-549.
Experiment [20] relates to MDA-MB-435.

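How tested: cells in 96-well plates exposed to compound for 48 hours at five concentrations. Abbreviation: GI50, concentration required for 50% inhibition of growth.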 Active and inactive are the calls of the source. Rule as the data show it: active = GI50 up to about 1.1 µM and inactive = higher.

Turning to `CCOc1ccc2c(ccc(/C=C/c3cc(C)c4cccnc4c3O)[n+]2C)c1`, the GI50 in experiment [1] is 0.675 µM (active); in experiment [2] it was 0.317 µM (active); in experiment [3], 0.157 µM (active); in [4], 0.746 µM (active); in [5] it was 0.498 µM (active); in [6], 1.08 µM (active). Also, the GI50 in experiment [7] was 1.67 µM (inactive); in experiment [8], 0.54 µM (active); in [9], 1.8 µM (inactive); in experiment [10] it was 0.495 µM (active); in experiment [11] it was 2.99 µM (inactive); in experiment [12], 0.773 µM (active). Moreover, the GI50 in [13] was 0.141 µM (active); in experiment [14], 1.4 µM (inactive); in experiment [15] it was 0.792 µM (active); in [16], 0.933 µM (active); in [17] it was 6.82 µM (inactive); in [18] it was 1.7 µM (inactive). In addition, the GI50 was 1.52 µM (inactive) in experiment [19] and 0.929 µM (active) in [20].
Regarding `COC(=O)/C(=N\NC(=O)c1ccccc1O)C(C#N)c1ccc(Cl)cc1` (stereo not given), the GI50 is 7.4 µM (inactive) in experiment [1]; 30.3 µM (inactive) in experiment [2]; 30.3 µM (inactive) in [4]; 21.7 µM (inactive) in experiment [5]; 24.4 µM (inactive) in experiment [6]; > 100 µM (inactive) in experiment [7]. The GI50 in experiment [10] is 37.9 µM (inactive); in experiment [11], 75.9 µM (inactive); in [13], 24.9 µM (inactive); in experiment [14] it was 5.85 µM (inactive); in experiment [15], 28.3 µM (inactive); in experiment [16], 31.5 µM (inactive). In addition, in [18], the GI50 is 26.7 µM (inactive).
Regarding `Cc1cc(=O)oc2cc(OCc3nc4ccccc4c(=O)[nH]3)ccc12`, the GI50 in experiment [1], in experiment [2], in [4], in [5], in [6] and in experiment [7] was > 100 µM (inactive) each time. The GI50 in experiment [9], in experiment [10], in [11], in experiment [13], in experiment [14] and in experiment [15] was > 100 µM (inactive) throughout. Besides, the GI50 in [18] is > 100 µM (inactive).
On to `CC(CCC=O)CCOCc1ccccc1` (stereo not given), for which the GI50 in experiment [1] was > 100 µM (inactive); in experiment [2], > 95.9 µM (inactive); in experiment [3], 56.6 µM (inactive); in experiment [4], > 100 µM (inactive); in [5], > 100 µM (inactive); in experiment [6], 67.3 µM (inactive). Also, the GI50 in experiment [7] was > 100 µM (inactive); in experiment [8], > 100 µM (inactive); in experiment [9] it was > 100 µM (inactive); in [10] it was > 63.5 µM (inactive); in experiment [11], > 73.8 µM (inactive); in [12], > 100 µM (inactive). The GI50 in [13] is 18.9 µM (inactive); in experiment [14], > 100 µM (inactive); in [15] it was > 100 µM (inactive); in experiment [16], 36.5 µM (inactive); in [17] it was > 100 µM (inactive); in [18], > 77.8 µM (inactive). Besides, the GI50 in [19] and in experiment [20] was > 100 µM (inactive) in each case.
In the case of `O=C(OCc1ccccc1)n1cccc1`, the GI50 is > 100 µM (inactive) in experiment [1]; 84.9 µM (inactive) in experiment [2]; > 100 µM (inactive) in experiment [4]; > 100 µM (inactive) in experiment [5]; 98.6 µM (inactive) in experiment [6]; > 100 µM (inactive) in [7]. The GI50 in experiment [9] was > 100 µM (inactive); in [10], 97.1 µM (inactive); in experiment [11] it was > 100 µM (inactive); in experiment [13], 57.4 µM (inactive); in experiment [14], > 100 µM (inactive); in experiment [15] it was > 100 µM (inactive). In addition, the GI50 in experiment [16] and in [18] was > 100 µM (inactive) each time.
`COc1ccccc1-c1cc(=O)c2cc(C)c(C)c(C(=O)O)c2o1`: the GI50 in experiment [1], in experiment [2], in experiment [4], in [5], in [6] and in experiment [7] was > 100 µM (inactive) each time. The GI50 in [9], in [10], in experiment [11], in [13], in experiment [14] and in [15] was > 100 µM (inactive) each time. Also, the GI50 in [16] and in experiment [18] was > 100 µM (inactive) in each case.
`CN(C)C(=S)Nc1nnc(NC23CC4CC(CC(C4)C2)C3)s1.[O-][Cl+3]([O-])([O-])O`: the GI50 in experiment [1] was 30.1 µM (inactive); in [2] it was 13.3 µM (inactive); in [4], 18.9 µM (inactive); in experiment [5], 18.5 µM (inactive); in experiment [6] it was 10 µM (inactive); in experiment [7] it was 15 µM (inactive). Besides, the GI50 in experiment [9] is 43.8 µM (inactive); in experiment [10], 15.8 µM (inactive); in [11] it was 19.6 µM (inactive); in experiment [13], 7.57 µM (inactive); in experiment [14] it was 21.8 µM (inactive); in experiment [15] it was 15 µM (inactive). Further, the GI50 in experiment [16] is 14.5 µM (inactive); in experiment [18] it was 16.1 µM (inactive).
Regarding `C/C(=N\NC(=S)NC(CCC(=O)O)C(=O)O)c1ccccn1` (stereo not given), the GI50 in [1], in experiment [2], in experiment [4], in experiment [5], in [6] and in experiment [7] was > 100 µM (inactive) in each case. Besides, the GI50 in experiment [9], in [10], in experiment [11], in experiment [13], in experiment [14] and in experiment [15] was > 100 µM (inactive) throughout. Also, the GI50 in [16] and in experiment [18] was > 100 µM (inactive) in each case.
With `O=C(c1nc2ccc(Cl)cc2nc1O)C(O)c1ccc2c(c1)OCO2` (stereo not given), the GI50 in experiment [1], in experiment [4], in experiment [5], in experiment [6], in experiment [7] and in experiment [9] was > 100 µM (inactive) in each case. Further, the GI50 in experiment [10] is 53.8 µM (inactive); in experiment [11] it was > 100 µM (inactive); in experiment [13], 19.7 µM (inactive); in [14], 65.3 µM (inactive); in [15] it was 78.5 µM (inactive); in [16] it was > 100 µM (inactive). Moreover, the GI50 in [18] is 71.4 µM (inactive).
Regarding `O=c1[nH]c(=O)n(C2OC(COP(=O)(O)OP(=O)(O)OC3OC(CO)C(O)C(O)C3O)C(O)C2O)cc1F` (stereo not given), the GI50 in experiment [1] is 0.125 µM (active); in [2] it was < 0.0129 µM (active); in experiment [4] it was 0.116 µM (active); in [5], 0.486 µM (active); in experiment [6] it was 0.147 µM (active); in experiment [7], 0.239 µM (active). Also, the GI50 in experiment [9] is 0.975 µM (active); in experiment [10] it was 0.0302 µM (active); in experiment [11], 0.191 µM (active); in experiment [13], 0.065 µM (active); in [14], 0.0217 µM (active); in experiment [15] it was 0.229 µM (active). The GI50 in [16] is 0.615 µM (active); in [18], 1.26 µM (inactive).
With `CC1=C2C(=CC(C)(C)C2O)C(=O)C(C)(O)C12CC2` (stereo not given), the GI50 in experiment [1] was 0.0153 µM (active); in [2], 0.00325 µM (active); in [4], 0.00541 µM (active); in experiment [5] it was 0.0121 µM (active); in experiment [6], 0.00681 µM (active); in experiment [7] it was 0.0279 µM (active). For the same compound, the GI50 in experiment [9] was 0.0262 µM (active); in experiment [10], 0.00558 µM (active); in experiment [11], 0.0157 µM (active); in experiment [13] it was 0.00345 µM (active); in experiment [14], 0.00479 µM (active); in experiment [15] it was 0.0247 µM (active). For the same compound, the values for the GI50 in [16] and in experiment [18] were 0.014 µM (active) and 0.00513 µM (active), respectively.
`COC(=O)CCC12CCC(=O)C1[C@@H](C(=O)OC)C[C@H]2C(=O)OC` (stereo not given in full): the GI50 in [1], in [2], in [4], in experiment [5], in [6] and in experiment [7] was > 100 µM (inactive) each time. In addition, the GI50 in experiment [9], in experiment [10], in [11], in experiment [13], in experiment [14] and in experiment [16] was > 100 µM (inactive) in each case. Besides, the GI50 in [18] was > 100 µM (inactive).
For `O=C(Nc1ccccc1)OCc1nc2c([nH]1)C(=O)C=CC2=O`, the GI50 in experiment [1] is 16.9 µM (inactive); in experiment [2], 14.9 µM (inactive); in experiment [4], 16.5 µM (inactive); in [5] it was 19.8 µM (inactive); in experiment [6], 19.4 µM (inactive); in [7] it was 16.2 µM (inactive). Further, the GI50 in experiment [9] was 15.9 µM (inactive); in experiment [10], 2.55 µM (inactive); in [11], 16 µM (inactive); in experiment [13], 3.29 µM (inactive); in [14], 12.6 µM (inactive); in experiment [15], 15.6 µM (inactive). The figures for the GI50 in experiment [16] and in experiment [18] were 3.42 µM (inactive) and 14.3 µM (inactive), respectively.
